Test results reported in patent US20160002247A1, “8-SUBSTITUTED IMIDAZOPYRIMIDINONE DERIVATIVE HAVING AUTOTAXIN INHIBITORY ACTIVITY” (THE UNIVERSITY OF TOKYO, priority 2013, published 2016).

Target: T1, Human autotaxin enzyme (Homo sapiens, UniProt Q13822)
T1 construct: purchased R&D System
Test: Evaluation of autotaxin inhibitor, Method C (Test Example 3): 18:0 Lyso PC, choline assay, Resorufin fluorescence
Assay type: biochemical
Settings: Assay Method C (Test Example 3), human autotaxin, 18:0 Lyso PC substrate; read-out: Inhibitory Activity (autotaxin enzyme inhibitory activity, IC50 class)
Experimental: (Method C) Evaluation of Autotaxin Inhibitor
Solution B containing 100 mM Tris-HCl buffer (pH7.5), 150 mM NaCl, 5 mM MgCl2 and 0.05% Triton X-100 was prepared. Human autotaxin enzyme (purchased from R&D System) was diluted with Solution B, and 2.5 μL of which was added to a solution of test compound in DMSO. Furthermore, 2.5 μl of 200 μM 18:0 Lyso PC (purchased from Avanti Polar Lipids) in Solution B was added and allowed to react at room temperature for 2 hours. After completion of the reaction, 15 μL of the coline assay reagent (100 mM Tris-HCl buffer (pH7.5), 5 mM MgCl2, 77 μg/mL choline oxidase, 10 μg/mL peroxidase, 25 μM 10-acetyl-3,7-dihydroxyphenoxazine and excess autotaxin inhibitor) was added and allowed to react at room temperature for 20 minutes. The fluorescent dye Resorufin, which was produced by the reaction, was detected. The fluorescence was detected using ViewLux (PerkinElmer, Inc.) with an excitation wavelength of 531 nm and a fluorescence wavelength of 598 nm.
The percent inhibition of the test compound was calculated by assuming the sample with no test compound as 0% inhibition and the sample with no enzyme as 100% inhibition, and the percent inhibitions at different concentrations of the test compound were plotted to obtain a concentration-dependent curve.

Structure (SMILES): CCCCCn1c(NC(C)=O)cc(=O)n2cc(-c3ccc(Cl)cc3)nc12 [Compound 333]
- IC50: 100 to 1000 nM

Structure (SMILES): CCCCCn1c(N2CCC[C@H]2C(=O)O)cc(=O)n2cc(-c3ccc(Cl)cc3)nc12 [Compound 334]
- IC50: > 1000 nM

Structure (SMILES): CCCCCn1c(N2CCC[C@H]2C(=O)NCCCn2ccnc2)cc(=O)n2cc(-c3ccc(Cl)cc3)nc12 [Compound 335]
- IC50: 100 to 1000 nM

Structure (SMILES): CCCCCn1c(N2CCC[C@H]2C(=O)N(C)CCC#N)cc(=O)n2cc(-c3ccc(Cl)cc3)nc12 [Compound 336]
- IC50: 10 to 100 nM

Structure (SMILES): CCCCCn1c(N2CCC[C@H]2C(=O)N2CCC[C@H]2C(=O)O)cc(=O)n2cc(-c3ccc(Cl)cc3)nc12 [Compound 337]
- IC50: 10 to 100 nM

Structure (SMILES): CCCCCn1c(N2CCC[C@H]2C(=O)NCCCOC)cc(=O)n2cc(-c3ccc(Cl)cc3)nc12 [Compound 338]
- IC50: 10 to 100 nM

Structure (SMILES): CCCCCn1c(N2CCC[C@H]2C(=O)NCCCO)cc(=O)n2cc(-c3ccc(Cl)cc3)nc12 [Compound 339]
- IC50: 10 to 100 nM

Structure (SMILES): CCCCCn1c(N2CCC[C@H]2C(=O)NCCC(=O)OC)cc(=O)n2cc(-c3ccc(Cl)cc3)nc12 [Compound 340]
- IC50: 10 to 100 nM

Structure (SMILES): CCCCCn1c(N2CCC[C@H]2C(=O)NCCN2CCCC2=O)cc(=O)n2cc(-c3ccc(Cl)cc3)nc12 [Compound 341]
- IC50: 10 to 100 nM

Structure (SMILES): CCCCCn1c(N2CCC[C@H]2C(=O)NCCn2ccnc2)cc(=O)n2cc(-c3ccc(Cl)cc3)nc12 [Compound 342]
- IC50: 100 to 1000 nM

Structure (SMILES): CCCCCn1c(N2CCC[C@H]2C(=O)NCCC(=O)N2CCOCC2)cc(=O)n2cc(-c3ccc(Cl)cc3)nc12 [Compound 343]
- IC50: 10 to 100 nM

Structure (SMILES): CCCCCn1c(N2CCC[C@H]2C(=O)NCCC(=O)N(C)C)cc(=O)n2cc(-c3ccc(Cl)cc3)nc12 [Compound 344]
- IC50: 100 to 1000 nM

Structure (SMILES): CCCCCn1c(N2CCC[C@H]2C(=O)NCCCCC(=O)O)cc(=O)n2cc(-c3ccc(Cl)cc3)nc12 [Compound 345]
- IC50: < 10 nM

Structure (SMILES): CCCCCn1c(N2CCC[C@H]2C(=O)N(C)CCCO)cc(=O)n2cc(-c3ccc(Cl)cc3)nc12 [Compound 346]
- IC50: 10 to 100 nM

Structure (SMILES): CCCCCn1c(N2CCC[C@H]2C(=O)NC2(CC(=O)OC)CCOCC2)cc(=O)n2cc(-c3ccc(Cl)cc3)nc12 [Compound 347]
- IC50: 10 to 100 nM

Structure (SMILES): CCCCCn1c(N2CCC[C@H]2C(=O)NCC(=O)O)cc(=O)n2cc(-c3ccc(Cl)cc3)nc12 [Compound 348]
- IC50: < 10 nM

Structure (SMILES): CCCCCn1c(N2CCC[C@H]2C(=O)N2CCCC2C(=O)O)cc(=O)n2cc(-c3ccc(Cl)cc3)nc12 (some centres unmarked) [Compound 349]
- IC50: < 10 nM

Structure (SMILES): CCCCCn1c(N2CCC[C@H]2C(=O)NC(C)(C)CC(=O)O)cc(=O)n2cc(-c3ccc(Cl)cc3)nc12 [Compound 350]
- IC50: < 10 nM

Structure (SMILES): CCCCCn1c(N2CCC[C@H]2C(=O)NCCCN)cc(=O)n2cc(-c3ccc(Cl)cc3)nc12 [Compound 352]
- IC50: > 1000 nM

Structure (SMILES): CCCCCn1c(N2CCC[C@H]2C(=O)N(C)CC(=O)O)cc(=O)n2cc(-c3ccc(Cl)cc3)nc12 [Compound 353]
- IC50: < 10 nM

Structure (SMILES): CCCCCn1c(N2CCC[C@H]2C(=O)NCCCC(=O)O)cc(=O)n2cc(-c3ccc(Cl)cc3)nc12 [Compound 354]
- IC50: < 10 nM

Structure (SMILES): CCCCCn1c(N2CCC[C@H]2C(=O)NCC(C)C(=O)O)cc(=O)n2cc(-c3ccc(Cl)cc3)nc12 (some centres unmarked) [Compound 355]
- IC50: < 10 nM

Structure (SMILES): CCCCCn1c(N2CCC[C@H]2C(=O)NC(C)CC(=O)O)cc(=O)n2cc(-c3ccc(Cl)cc3)nc12 (some centres unmarked) [Compound 356]
- IC50: < 10 nM

Structure (SMILES): CCCCCn1c(N(C)C(C)=O)cc(=O)n2cc(-c3ccc(Cl)cc3)nc12 [Compound 361]
- IC50: > 1000 nM

Structure (SMILES): CCCCCn1c(-c2ccc(C(=O)O)cc2)cc(=O)n2cc(-c3ccc(Cl)cc3)nc12 [Compound 362, 4-(2-(4-chlorophenyl)-5-oxo-8-pentyl-5,8-dihydroimidazo[1,2-a]pyrimidin-7-yl)benzoic acid]
- IC50: 10 to 100 nM

Structure (SMILES): CCCCCn1c(-c2ccc(C(=O)NCCNC(=O)OCc3ccccc3)cc2)cc(=O)n2cc(-c3ccc(Cl)cc3)nc12 [Compound 363, benzyl 2-(4-(2-(4-chlorophenyl)-5-oxo-8-pentyl-5,8-dihydroimidazo[1,2-a]pyrimidin-7-yl)benzamide)ethylcarbamate]
- IC50: 10 to 100 nM

Structure (SMILES): CCCCCn1c(-c2ccc(C(=O)NCCN)cc2)cc(=O)n2cc(-c3ccc(Cl)cc3)nc12 [Compound 364, N-(2-aminoethyl)-4-(2-(4-chlorophenyl)-5-oxo-8-pentyl-5,8-dihydroimidazo[1,2-a]pyrimidin-7-yl)benzamide]
- IC50: 10 to 100 nM

Structure (SMILES): CCCCCn1c(-c2ccc(C(=O)NCCN3CC4(COC4)C3)cc2)cc(=O)n2cc(-c3ccc(Cl)cc3)nc12 [Compound 365]
- IC50: 10 to 100 nM

Structure (SMILES): CCCCCn1c(-c2cnc(OC)nc2)cc(=O)n2cc(-c3ccc(Cl)cc3)nc12 [Compound 373]
- IC50: 10 to 100 nM

Structure (SMILES): CCCCCn1c(-c2ccc(C(N)=O)cc2)cc(=O)n2cc(-c3ccc(Cl)cc3)nc12 [Compound 375]
- IC50: 10 to 100 nM

Structure (SMILES): N#CCCCCn1c(-c2ccc(C(=O)NCCN3CCOCC3)cc2)cc(=O)n2cc(-c3ccc(C(F)(F)F)cc3)nc12 [Compound 376]
- IC50: 10 to 100 nM

Structure (SMILES): CN(C)CCNC(=O)c1ccc(-c2cc(=O)n3cc(-c4ccc(C(F)(F)F)cc4)nc3n2CCCCC#N)cc1 [Compound 377]
- IC50: 10 to 100 nM

Structure (SMILES): CN(C)CCNC(=O)c1ccc(-c2cc(=O)n3cc(-c4ccc(Cl)cc4)nc3n2CCCCC#N)cc1 [Compound 378]
- IC50: 10 to 100 nM

Structure (SMILES): CN(C)CCNC(=O)c1ccc(-c2cc(=O)n3cc(-c4ccc(Cl)cc4)nc3n2CCCC(F)(F)F)cc1 [Compound 381]
- IC50: 10 to 100 nM

Structure (SMILES): NC(=O)c1ccc(-c2cc(=O)n3cc(-c4ccc(Cl)cc4)nc3n2CCCC(F)(F)F)cc1 [Compound 382]
- IC50: 10 to 100 nM

Structure (SMILES): O=C(NCCN1CCOCC1)c1ccc(-c2cc(=O)n3cc(-c4ccc(Cl)cc4)nc3n2CCCC(F)(F)F)cc1 [Compound 383]
- IC50: 10 to 100 nM

Structure (SMILES): CN(C)CCNC(=O)c1ccc(-c2cc(=O)n3cc(-c4ccc(C#N)cc4)nc3n2CCCC(F)(F)F)cc1 [Compound 387]
- IC50: 10 to 100 nM

Structure (SMILES): N#Cc1ccc(-c2cn3c(=O)cc(-c4ccc(C(N)=O)cc4)n(CCCC(F)(F)F)c3n2)cc1 [Compound 388]
- IC50: 10 to 100 nM

Structure (SMILES): CCCCCn1c(-c2ccc(C(=O)NCCO)cc2)cc(=O)n2cc(-c3ccc(Cl)cc3)nc12 [Compound 390]
- IC50: 10 to 100 nM

Structure (SMILES): CCCCCn1c(-c2ccc(C(C)=O)cc2)cc(=O)n2cc(-c3ccc(Cl)cc3)nc12 [Compound 391]
- IC50: 10 to 100 nM

Structure (SMILES): CCCCCn1c(-c2ccc(CO)cc2)cc(=O)n2cc(-c3ccc(Cl)cc3)nc12 [Compound 394]
- IC50: 10 to 100 nM

Structure (SMILES): CCCCCn1c(-c2ccc(NS(C)(=O)=O)cc2)cc(=O)n2cc(-c3ccc(Cl)cc3)nc12 [Compound 401]
- IC50: 10 to 100 nM

Structure (SMILES): CCCCCn1c(-c2ccc(C(=O)N3CCCC3)cc2)cc(=O)n2cc(-c3ccc(Cl)cc3)nc12 [Compound 406]
- IC50: 100 to 1000 nM

Structure (SMILES): CCCCCn1c(-c2cccnc2)cc(=O)n2cc(-c3ccc(Cl)cc3)nc12 [Compound 407]
- IC50: 10 to 100 nM

Structure (SMILES): CCCCCn1c(-c2cncnc2)cc(=O)n2cc(-c3ccc(Cl)cc3)nc12 [Compound 409]
- IC50: 10 to 100 nM

Structure (SMILES): CCCCCn1c(-c2ccc(S(=O)(=O)NCCO)cc2)cc(=O)n2cc(-c3ccc(Cl)cc3)nc12 [Compound 412]
- IC50: 10 to 100 nM

Structure (SMILES): CCCCCn1c(-c2ccc(C(=O)NCCN(C)C)cc2)cc(=O)n2cc(-c3ccc(Cl)cc3)nc12 [Compound 413]
- IC50: 10 to 100 nM

Structure (SMILES): CCCCCn1c(-c2cnn(CCN3CCOCC3)c2)cc(=O)n2cc(-c3ccc(Cl)cc3)nc12 [Compound 425]
- IC50: 10 to 100 nM

Structure (SMILES): CCCCCn1c(-c2cc(NC(C)=O)cc(C(=O)O)c2)cc(=O)n2cc(-c3ccc(Cl)cc3)nc12 [Compound 427]
- IC50: 10 to 100 nM

Structure (SMILES): CCCCCn1c(-c2cccc(C(=O)NCc3ccccc3)c2)cc(=O)n2cc(-c3ccc(Cl)cc3)nc12 [Compound 428]
- IC50: 100 to 1000 nM

Structure (SMILES): CCCCCn1c(-c2ccc(S(=O)(=O)O)cc2)cc(=O)n2cc(-c3ccc(Cl)cc3)nc12 [Compound 429]
- IC50: 10 to 100 nM

Structure (SMILES): CCCCCn1c(-c2ccc(S(=O)(=O)N3CCOCC3)cc2)cc(=O)n2cc(-c3ccc(Cl)cc3)nc12 [Compound 430]
- IC50: 10 to 100 nM

Structure (SMILES): CCCCCn1c(-c2ccc(S(=O)(=O)NC)cc2)cc(=O)n2cc(-c3ccc(Cl)cc3)nc12 [Compound 431]
- IC50: 10 to 100 nM

Structure (SMILES): CCCCCn1c(-c2ccc(SC)cc2)cc(=O)n2cc(-c3ccc(Cl)cc3)nc12 [Compound 432]
- IC50: 100 to 1000 nM

Structure (SMILES): CCCCCn1c(-c2ccc(S(C)(=O)=O)cc2)cc(=O)n2cc(-c3ccc(Cl)cc3)nc12 [Compound 433]
- IC50: 10 to 100 nM

Structure (SMILES): CCCCCn1c(-c2ccc(NC(C)=O)cc2)cc(=O)n2cc(-c3ccc(Cl)cc3)nc12 [Compound 434]
- IC50: 100 to 1000 nM

Structure (SMILES): CCCCCn1c(-c2ccc(CC)cc2)cc(=O)n2cc(-c3ccc(Cl)cc3)nc12 [Compound 435]
- IC50: 100 to 1000 nM

Structure (SMILES): CCCCCn1c(-c2cccc(C(=O)NCCOC)c2)cc(=O)n2cc(-c3ccc(Cl)cc3)nc12 [Compound 436]
- IC50: 10 to 100 nM

Structure (SMILES): CCCCCn1c(-c2ccc(NC(=O)N3CCOCC3)cc2)cc(=O)n2cc(-c3ccc(Cl)cc3)nc12 [Compound 437]
- IC50: 10 to 100 nM

Structure (SMILES): CCCCCn1c(-c2ccc(NS(=O)(=O)N(C)C)cc2)cc(=O)n2cc(-c3ccc(Cl)cc3)nc12 [Compound 438]
- IC50: 10 to 100 nM

Structure (SMILES): CCCCCn1c(-c2cccc(C(=O)NCCN(C)C)c2)cc(=O)n2cc(-c3ccc(Cl)cc3)nc12 [Compound 439]
- IC50: 10 to 100 nM

Structure (SMILES): CCCCCn1c(-c2ccccc2NS(C)(=O)=O)cc(=O)n2cc(-c3ccc(Cl)cc3)nc12 [Compound 440]
- IC50: 100 to 1000 nM
